Results from US8702959B2, “System and method for detecting a substance in liquid” (priority 2009, dated 2014).

Key:
[1] = test system: E. coli reporter strain panel
Procedure: The AP activity was measured electrochemically at potential […] by making use of pAPP in a point assay after induction period. The determined SOS-induction factors for each concentration level are plotted against each other.
To increase the capabilities of the reporter cells as genotoxicity bioreporters, a series of knock-out mutations was introduced to the E. coli RFM443's genome. The genes that were selected to be deleted are genes affiliated with DNA repair mechanisms (Nucleotide Exicision Repair, uvrA; DNA Pol V, umuD) and a structural gene that can influence cell permeability (lipopolysaccharide, rfaE). […] The deletion mutations in uvrA and umuD were transferred by P1 transduction. […] From each gene deletion experiment, eight Km^R colonies were chosen and checked for the correct mutation structure by PCR using a combination of locus- and kanamycin-specific primers (Table 1). PCR fragments with the right size of both junctions were sent to sequencing. Sequences were indentified using BLAST program operating on the default options querying the NCBI nucleotide collection database. The construction of double or triple mutants was obtained by the elimination of the resistance using a helper plasmid expressing the FLP recombinase, which acts on the FRT (FLP recognition target) sites flanking the resistance gene. Using the methods described above, a set of mutated reporter strains was constructed as detailed in Table 2. Strains dedicated to harbor the phoA reporter gene were also engineered to contain a deletion in the chromosomal phoA gene to eliminate the possibility of native PhoA activity.

[2] = test system: Escherichia coli RFM443/pBR2TTS cells harboring a sulA::phoA fusion; type: cell-based
Procedure: Escherichia coli RFM443/pBR2TTS cells harboring a sulA::phoA fusion were grown overnight in MOPS growth medium containing 0.1 mg/ml ampicillin with shaking conditions at 37° C. The overnight culture was diluted ×1/100, regrown to an optical density of 0.2 (600 nm). Finally NA (FW 254.22, Sigma) was added to a final concentration of 10 μg/ml. Following further incubation at various times of 0, 60, 90, or 120 minutes under similar conditions, aliquots of 3 μl were introduced into the electrochemical microchambers. Shortly after applying a constant potential of 300 mV vs. Ag/AgCl in the electrochemical chamber, the enzymatic substrate para-Aminophenyl phosphate (pAPP, MW 211.09, diagnoSwiss) was added reaching a concentration of 0.8 mg/ml.
Control samples were prepared with the addition of growth medium instead of NA or pAPP to the incubation stage in order to verify the influence of NA on the induction of the bacteria and pAPP on the generated bio-electrochemical response.

[3] = test system: Salmonella typhimurium TA1535 pSK1002 cells; assay: Genotoxicity bio-detection of IQ with Salmonella typhimurium umuC'-'lacZ reporter, amperometry on micro-chip; type: cell-based
Procedure: Salmonella typhimurium TA1535 pSK1002 [Y. Oda et al., Mutat. Res. 147 (1985) 219] cells were used for the IQ bio-detection. The construction of the pSK1002 plasmid was reported in H. Shinagawa et al. Gene. 23 (1983) 167, which is hereby incorporated by reference in its entirety. The exposition of bacteria was done according to Reifferscheid et al. [Reifferscheid et al., Mutat. Res. 253 (1991) 215]. An over night culture of the bacteria was refreshed in 20 ml TGA-medium (1:10 dilution of bacteria) and grown for further 2 h (37° C., 150 rpm). Prior to exposition the optical density (λ=595 nm) of the bacterial culture was adjusted to 0.44 by dilution with TGA medium. […] The OD595 of the exposed mixture was measured after an incubation time of 2 h at 37° C. and 900 rpm in shaking conditions.
The activity of the reporter enzyme β-galactosidase in the induced bacteria was measured by making use of the substrate para-Aminophenyl β-D-galactopyranoside (pAPG, 0.5 mM final concentration, Sigma). Shortly after the addition of pAPG, aliquots of 3 μl were introduced into the electrochemical microchambers and a constant potential of 300 mV vs. Ag/AgCl was applied on the electrochemical chamber in order to quantify the enzymatically generated product pAP. The setup was connected in such a way that the output current was monitored (i.e. amperometry measurement).

## OO [H2O2, hydrogen peroxide]
[1]; AP activity measured electrochemically at potential 0.3 mV with pAPP, point assay after induction, FIG. 14
  response of the reporter to model genotoxicants: responsive
[1]; uvrA mutant, FIG. 14
  response of the uvrA mutant reporter strain: elevated response

## CCn1cc(C(=O)O)c(=O)c2ccc(C)nc21 [NA, Nalidixic acid]
[1]; ΔrfaE mutants, FIG. 14
  response of the ΔrfaE reporter strains: respond to lower concentrations
[2]; NA 10 μg/ml, 1 hr incubation, pAPP 0.8 mg/ml, 300 mV vs. Ag/AgCl, FIG. 10A
  chrono-amperometric response of E. coli bacteria in the presence of toxicant after pAPP was added: increasing electrochemical current
[2]; NA 10 μg/ml, 1 hr incubation, pAPP 0.8 mg/ml, FIG. 10A
  electrochemical current of induced bacteria compared with non-induced bacteria, pAPP added to both: more rapidly increasing electrochemical current than non-induced bacteria
[2]; NA 10 μg/ml, induction 0, 60, 90 or 120 minutes, FIGS. 10B-C
  effect of induction time on the slope of the detected electrochemical current: For longer induction times the current increased more rapidly
[2]; microfluidic whole cell prototype biosensor, model toxicant
  detection by the prototype biosensor: successfully detected

## Cn1c(N)nc2c3cccnc3ccc21 [IQ, 2-Amino-3-methylimidazo[4,5-f]quinoline]
[3]; IQ 5, 1.25, 0.31 μM activated with S9-fraction, 2 h, pAPG 0.5 mM, 300 mV vs. Ag/AgCl, FIG. 11A
  dependence of the differential slope of the electrochemical current on concentration: more rapidly increasing electrochemical current characteristics
[3]; microfluidic whole cell prototype biosensor, genotoxic material
  detection by the prototype biosensor: successfully detected
[1]; following metabolic activation with lyophilized liver S9 fraction, compared with umu-test reporter strain
  response of the reporter strain mutated in uvrA and rfaE genes: responded
